Experimental findings from ChEMBL document CHEMBL1201862, “PubChem BioAssay data set” (2004) are described below.

Test systems include 786-0; CAKI-1; COLO 205; DU-145; HCC 2998; HCT-116; HOP-62; HT-29; MDA-MB-231; MDA-MB-435; NCI-H522; NCI/ADR-RES; OVCAR-3; RPMI-8226; SK-MEL-28; SNB-19; SNB-75; SR; SW-620; UACC-62.
Assay in all cases: inhibition of tumour cell growth, NCI panel, 48 h

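The compound was tested at five concentrations on cells cultured in 96-well plates, with a 48-hour exposure period. Here, GI50 denotes the concentration required for 50% inhibition of growth.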 Activity calls are given as the source filed them. Rule as the data show it: active = GI50 up to about 1.1 µM and inactive = higher.

Take `CCN(CC)CCC(=O)/C=C/c1ccccc1`: the GI50 with 786-0 was 2.67 µM (inactive); in the test on CAKI-1, 3.27 µM (inactive); with COLO 205 it was 7.11 µM (inactive); with DU-145 it was 22.5 µM (inactive); with HCC 2998, 19.5 µM (inactive); with HCT-116 it was 7.87 µM (inactive). The GI50 in the test on HOP-62 is 20.3 µM (inactive); with HT-29 it was 5.05 µM (inactive); with MDA-MB-231, 15.5 µM (inactive); with MDA-MB-435 it was 11 µM (inactive); in the test on NCI-H522, 4.51 µM (inactive); with NCI/ADR-RES, 17.5 µM (inactive). In addition, the GI50 in the test on OVCAR-3 was 3.54 µM (inactive); in the test with RPMI-8226 it was 1.97 µM (inactive); in the test on SK-MEL-28, 15.2 µM (inactive); in the test with SNB-19, 18.1 µM (inactive); in the test with SNB-75, 13.2 µM (inactive); in the test with SR it was 3.41 µM (inactive). Besides, the GI50 in the test on SW-620 is 5.89 µM (inactive).

On to `Nc1nc(N)c2cc(Sc3cccc(C(F)(F)F)c3)ccc2n1` [WR-159412], for which the GI50 was 0.624 µM (active) with 786-0; 1.17 µM (inactive) in the test with CAKI-1; 1.21 µM (inactive) in the test on COLO 205; 0.982 µM (active) in the test with DU-145; 1.39 µM (inactive) in the test with HCC 2998; 0.237 µM (active) in the test with HCT-116. Also, the GI50 in the test with HOP-62 is 2.12 µM (inactive); in the test with HT-29 it was 3.62 µM (inactive); in the test on MDA-MB-231, 0.364 µM (active); with MDA-MB-435 it was 0.662 µM (active); in the test on NCI-H522 it was 2.7 µM (inactive); in the test on NCI/ADR-RES it was 0.955 µM (active). For the same compound, the GI50 in the test on OVCAR-3 was 3.87 µM (inactive); in the test with RPMI-8226, 1.93 µM (inactive); in the test on SK-MEL-28, 4.46 µM (inactive); in the test on SNB-19, 4.81 µM (inactive); in the test with SNB-75, 3.17 µM (inactive); in the test on SR, 0.843 µM (active). For the same compound, the GI50 with UACC-62 is 0.755 µM (active).

In the case of `COc1c(-c2ccc(F)cc2)oc2cc(O)cc(O)c2c1=O`, the GI50 was 32.8 µM (inactive) in the test with 786-0; 24.3 µM (inactive) with CAKI-1; 20.9 µM (inactive) with COLO 205; 29 µM (inactive) in the test with DU-145; 14.5 µM (inactive) in the test on HCC 2998; 30.5 µM (inactive) with HCT-116. Further, the GI50 with HOP-62 was 18.5 µM (inactive); in the test on HT-29 it was 22.7 µM (inactive); with MDA-MB-231 it was 20 µM (inactive); with MDA-MB-435, 32.1 µM (inactive); in the test with NCI-H522, 20.5 µM (inactive); in the test with NCI/ADR-RES, 25.9 µM (inactive). Moreover, the GI50 with OVCAR-3 was 34.1 µM (inactive); with RPMI-8226, 30.4 µM (inactive); in the test on SK-MEL-28, 46.9 µM (inactive); in the test on SNB-19 it was 23.9 µM (inactive); in the test with SNB-75 it was 19.2 µM (inactive); in the test on SR, 28.2 µM (inactive). Also, in the test on SW-620, the GI50 was 43 µM (inactive).

Take `O=S(=O)(c1ccc(Br)cc1)N1CCN(S(=O)(=O)c2ccc(Br)cc2)CC1`: the GI50 in the test with 786-0, in the test with CAKI-1, in the test with COLO 205, in the test with DU-145, with HCT-116 and with HOP-62 was > 100 µM (inactive) in each case. Besides, the GI50 with HT-29, in the test on MDA-MB-231, in the test on MDA-MB-435, with NCI-H522, in the test on NCI/ADR-RES and in the test on OVCAR-3 was > 100 µM (inactive) throughout. For the same compound, the GI50 is > 100 µM (inactive) in the test on RPMI-8226; > 100 µM (inactive) in the test on SK-MEL-28; > 100 µM (inactive) in the test on SNB-19; > 100 µM (inactive) with SNB-75; 0.0703 µM (active) in the test on SR; > 100 µM (inactive) in the test on SW-620. In the test with UACC-62, the GI50 was > 100 µM (inactive).

Turning to `C/C(Nc1ccc(F)cc1)=C1/CCOC1=O`, the GI50 in the test on 786-0 was > 100 µM (inactive); with COLO 205, 4.7 µM (inactive); with DU-145, > 100 µM (inactive); in the test on HCC 2998, 25.6 µM (inactive); with HCT-116, > 100 µM (inactive); in the test on HOP-62, > 100 µM (inactive). Besides, the GI50 in the test on HT-29 is > 100 µM (inactive); in the test with MDA-MB-231 it was > 100 µM (inactive); in the test on MDA-MB-435, 2.92 µM (inactive); with NCI-H522 it was > 100 µM (inactive); in the test on NCI/ADR-RES, > 100 µM (inactive); in the test on OVCAR-3 it was > 100 µM (inactive). The GI50 with RPMI-8226, with SK-MEL-28, in the test on SNB-19, with SNB-75, in the test with SR and in the test with SW-620 was > 100 µM (inactive) in each case. Also, in the test with UACC-62, the GI50 was 0.277 µM (active).

On to `N#CC(CCN1CCC(Nc2ccccc2)(c2nnnn2C2CCCCC2)CC1)(c1ccccc1)c1ccccc1`, for which the GI50 in the test with 786-0 is > 100 µM (inactive); with COLO 205, > 100 µM (inactive); in the test on DU-145 it was 81.3 µM (inactive); with HCC 2998, > 100 µM (inactive); in the test with HCT-116 it was > 100 µM (inactive); in the test with HOP-62, > 100 µM (inactive). Besides, the GI50 in the test on HT-29, in the test on MDA-MB-231, in the test with MDA-MB-435, in the test with NCI-H522, with NCI/ADR-RES and in the test with OVCAR-3 was > 100 µM (inactive) throughout. Besides, the GI50 in the test with RPMI-8226, with SK-MEL-28, in the test on SNB-19, with SNB-75, with SR and with SW-620 was > 100 µM (inactive) throughout. Besides, in the test on UACC-62, the GI50 is > 100 µM (inactive).

Regarding `COc1ccc(/N=N/C(=N/NC(=O)c2ccccc2)c2ccc(N(CCC#N)CCC#N)cc2C)cc1`, the GI50 is 47.5 µM (inactive) with 786-0; > 100 µM (inactive) with CAKI-1; 32.8 µM (inactive) in the test with COLO 205; 81.3 µM (inactive) in the test on DU-145; 12.4 µM (inactive) in the test with HCC 2998; 29.9 µM (inactive) with HCT-116. In addition, the GI50 in the test with HOP-62 was 51.6 µM (inactive); in the test with HT-29 it was 17.9 µM (inactive); in the test with MDA-MB-231 it was 50.9 µM (inactive); in the test on MDA-MB-435, 5.43 µM (inactive); in the test with NCI-H522, 10.7 µM (inactive); with NCI/ADR-RES, > 100 µM (inactive). Besides, the GI50 in the test with OVCAR-3 was 17.7 µM (inactive); in the test on RPMI-8226 it was > 100 µM (inactive); in the test with SNB-19, 50.9 µM (inactive); in the test with SNB-75 it was 43 µM (inactive); in the test on SR it was 6.19 µM (inactive); with UACC-62, 38.5 µM (inactive).

On to `COc1nc2ncc([C@@H](O)[C@H](O)CO)nc2c(=O)n1C`, for which the GI50 with 786-0, with CAKI-1, in the test on COLO 205, in the test on DU-145, in the test on HCT-116 and in the test on HOP-62 was > 100 µM (inactive) throughout. For the same compound, the GI50 with HT-29, with MDA-MB-231, with MDA-MB-435, in the test with NCI-H522, with NCI/ADR-RES and with OVCAR-3 was > 100 µM (inactive) throughout. Also, the GI50 with RPMI-8226, with SK-MEL-28, in the test on SNB-19, in the test on SNB-75, in the test on SR and in the test with SW-620 was > 100 µM (inactive) each time. Besides, the GI50 with UACC-62 was > 100 µM (inactive).

For `C=C1C2C[C@@H]3O[C@H]4C[C@H]5O[C@@]6(C[C@@H]7O[C@]8(C[C@H](C)[C@@H]9O[C@@H]%10CC(CO)O[C@@H]%10C[C@@H]9O8)C[C@H](C)[C@@H]7O6)C[C@H]5O[C@H]4[C@H](C)[C@H]3OC(=O)C[C@H]3CC[C@@H]4OC5[C@H]6O[C@]7(CC[C@H]8CC(=C)[C@H](CC[C@@H](C[C@H]1C)O2)O8)CC6O[C@@H]5[C@@H](O7)[C@H]4O3` (stereo partly drawn), the GI50 in the test with 786-0, in the test on CAKI-1, in the test on COLO 205, in the test on DU-145, with HCC 2998 and with HCT-116 was < 0.0001 µM (active) throughout. The GI50 in the test on HOP-62, in the test with MDA-MB-231, in the test with MDA-MB-435, in the test on NCI-H522, in the test with NCI/ADR-RES and in the test on OVCAR-3 was < 0.0001 µM (active) each time. For the same compound, the GI50 in the test with RPMI-8226, in the test on SNB-19, with SNB-75, with SR, in the test on SW-620 and with UACC-62 was < 0.0001 µM (active) throughout.

`CC[C@@]1(O)C(=O)OCc2c1cc1n(c2=O)Cc2c-1nc1ccc(O)cc1c2[Si](C)(C)C(C)(C)C` [AR-67]: the GI50 was < 0.01 µM (active) with 786-0; < 0.01 µM (active) in the test with CAKI-1; 0.031 µM (active) in the test on COLO 205; < 0.01 µM (active) in the test on DU-145; 0.0205 µM (active) in the test on HCC 2998; < 0.01 µM (active) with HCT-116. Moreover, the GI50 is 0.0855 µM (active) in the test with HT-29; 0.286 µM (active) with MDA-MB-231; < 0.01 µM (active) in the test on MDA-MB-435; < 0.01 µM (active) in the test on NCI-H522; 0.0324 µM (active) in the test with NCI/ADR-RES; 0.0261 µM (active) in the test with OVCAR-3. Moreover, the GI50 in the test with RPMI-8226 was < 0.0152 µM (active); in the test with SK-MEL-28 it was 0.0317 µM (active); with SNB-19, < 0.01 µM (active); in the test on SNB-75, < 0.01 µM (active); with SR, < 0.01 µM (active); in the test with SW-620 it was < 0.01 µM (active). In the test on UACC-62, the GI50 is < 0.01 µM (active).
